In a melting point compilation (Tetko et al.; mined from patent text by program, amines drawn as free bases though some values may be those of a salt) one finds melting point data, which are given here for 86 compounds.

Molecules are shown by their SMILES.

Turning to `O=C(O)c1cnc(S)n1C(c1ccccc1)c1ccccc1`, the melting point turned out to be 158 °C. Under `CCC1(CCCCN2CCN(c3ccc(Cl)cc3)CC2)C(=O)Nc2c(Cl)cc(Cl)cc21` (stereo unspecified) stands 152 to 154 °C.

`CCCc1c(OCCCCCOc2ccc3c(=O)cc(C(=O)OCC)oc3c2CCC)ccc(C(C)=O)c1O` registered a melting point of 90 to 91 °C. In turn, `O=C(Nc1ccc(-n2nc(C(F)(F)F)cc2OC(F)F)cc1)c1cccnc1F` returned a melting point of 149 to 150 °C. For `CCOC(=O)[C@H](Cc1ccc(-c2c(OC)cc(CO)cc2OC)cc1)NC(=O)c1c(F)cccc1Cl` the value was 101 to 104 °C; for `COC(=O)c1cc(C)c(C)cc1C(=O)OC`, 54 to 55 °C; for `C=CCn1ncc(=O)[nH]c1=O`, 133 °C. Under `Cc1ccc(C=CC(=O)CCCCCl)cc1` stands 79 to 82 °C; under `O=C1Nc2ccccc2N(C(=O)CN2CCCCC2CN2CCCC2)c2cscc21` (stereo unspecified), 205 to 207 °C; under `CC(C)(C)OC(=O)N1CCC(c2noc3c(O)c(F)ccc23)CC1`, 169 to 170 °C. Under `COc1ccnc(CSc2nc3c(OC(F)F)c(OC)c(OC)cc3[nH]2)c1` stands 112 to 114 °C.

In turn, `CC(C)CCOC1CCC(=O)N1` (stereo unspecified) gave a melting point of 73 to 75 °C. For `O=C(Nc1cccc(S(=O)(=O)NCCO)c1)c1cnn2c(C(F)(F)F)cc(-c3ccc(C(F)(F)F)cc3)nc12` the value was 227 °C; for `Cc1ccc(S(=O)(=O)Nc2nc(-c3ccc([N+](=O)[O-])cc3)cs2)cc1`, above 250 °C. Under `O=C(CCCCCS(=O)c1ccc(-c2ccc(Cl)cc2)cc1)NO` (stereo unspecified) stands 108 to 110 °C; under `Cc1noc(NS(=O)(=O)c2ccccc2)c1Cl`, 140 to 143 °C; under `CC(=O)c1cc(N2CCOCC2)ccc1NC(=O)c1ccccc1OCc1ccccc1`, 144 to 146 °C. `CS(=O)(=O)Nc1cc(OC[C@@H](O)CNC2CCN(c3ccc(C#N)cc3)CC2)ccc1O`: the melting point was in the range of 78 to 80 °C.

For `O=C(CCCc1cccs1)N[C@H](Cc1ccc(C(F)(F)F)cc1)[C@@H](O)c1cccc2ccccc12` (racemic), the melting point fell in the range of 139 to 140 °C.

Consider `CC(=O)c1c(N2CCOCC2)nn2ccccc12`, for which the melting point is 164 °C. For `CCCCn1nc(SCc2ccc(OC)cc2)c(C(=O)O)c1Cc1cc2c(cc1Cl)OCO2` the value was 181 °C. For `NC1=NN(c2nc3ccccc3s2)C(c2ccc(Cl)cc2)C1` (stereo unspecified) the value was 273 to 275 °C; for `CCCCCCCCCCCCC(OC(C)=O)C1=CC(=O)OC1O` (stereo unspecified), 67 to 68 °C.

Turning to `COc1c(O)ccc2oc(-c3ccc(O)cc3)cc12`, the melting point lay within 165 to 168 °C. Under `CS(=O)(=O)c1cccc(-c2ccccc2NC(=S)NC(=O)c2ccccc2)c1` stands 179 to 180 °C; under `CC(=O)Nc1ccc(OCC2CO2)c(C(=O)Nc2cccc3[nH]ccc23)c1` (stereo unspecified), 230 °C. Under `CCc1nc2ncnn2c(N)c1CCc1ccccc1` stands 210 to 211 °C; under `NC(=O)C1CCn2c(cc3ccccc32)C1` (stereo unspecified), 165 to 168 °C; under `CC(C)C(=O)C1(S(=O)(=O)c2ccc(O)cc2)CC1`, 111 to 112 °C. Under `COC(=O)c1ccc(N(C)C)cc1C(=O)OC` stands 54 to 57 °C; under `COc1cc(C#N)ccc1C(Br)Br`, 78 to 79 °C.

The compound `O=C1NC(=O)C(Nc2ccc(CCNCC(O)COc3ccc(OCc4ccccc4)cc3)cc2)S1` (stereo unspecified) came in with a melting point of 152 °C. Under `CNC(=O)Oc1cc(C)c(NC(=O)C(F)(F)Cl)c(C)c1` stands 163 to 165 °C. In turn, `Cn1c(CO)nc2ccc(Sc3ccccc3)nc21` yielded a melting point of 119 to 120 °C. `COc1ccc(COc2cc3c(cc2-c2cc(C=CC(=O)O)ccc2O)C(C)(C)CCC3(C)C)cc1` had a melting point of 170 to 172 °C.

Turning to `O=C(NNS(=O)(=O)c1ccccc1)c1cc2cccc(Cl)c2o1`, the melting point was 179 to 180 °C.

`CCCCCn1c(C)cc(=O)c(C(=O)Nc2ccccc2)c1-c1ccccc1` displayed a melting point of 164 to 166 °C. Under `O=C1CN(Cc2n[nH]c(=O)[nH]2)[C@@H](c2ccccc2)[C@@H](COCc2cc(C(F)(F)F)cc(C(F)(F)F)c2)N1` stands 138 to 140 °C; under `CN1CCC(c2c[nH]c3ccc(NS(=O)(=O)c4ccccc4)nc23)CC1`, 148 to 150 °C. `COc1cc2c(Nc3ccc(Sc4nccn4C)c(Cl)c3)c(C#N)cnc2cc1OCCCN1CCC(N2CCCC2)CC1` gave a melting point of 196 to 198 °C. For `NC(=O)N(O)Cc1ccc(OCc2csc(-c3ccccc3)n2)cc1` the value was 161 to 164 °C; for `O=C(NCCc1ccccc1)[C@@H]1Cc2ccccc2N1S(=O)(=O)c1cccc(CNC(=O)C(F)(F)F)c1`, 70 °C; for `Cc1nc2c([N+](=O)[O-])cc3nc(O)c(O)nc3c2nc1C`, above 300 °C. In the case of `CCCCCCCCCC(=O)Oc1ccc([N+](=O)[O-])cc1OC(=O)CCCCCCCCC`, the melting point fell in the range of 45 to 47 °C. `CCCCC(C(=O)N[C@@H](CC(=O)O)c1ccc2c(c1)OCO2)N1C(=O)N(Cc2ccccc2)C(=O)C1(C)C` (stereo partly specified) gave a melting point of 53 to 55 °C. For `CC(C)Oc1cc(CCCOc2nn(Cc3ccccc3)cc2CC(=O)O)n(Cc2ccc(Cl)cc2OC(C)C)n1` the value was 113 to 115 °C; for `COCn1ccnc1C(O)(c1ccc(C(F)(F)F)cc1)c1ccc(C(F)(F)F)cc1`, 160 to 161 °C. Under `Cc1ccc(S(=O)(=O)OC(C)(c2ccccc2)C(F)(F)F)cc1` (stereo unspecified) stands 102 °C; under `Cc1ccc(S(=O)(=O)Oc2ccc(F)cc2Cl)cc1`, 92 to 94 °C; under `CSC(=NC(C)=O)Nc1ccccc1[N+](=O)[O-]`, 120 to 122 °C.

`OOC12C=CC=CC=CC=CC=CC1=CC=CO2` (stereo unspecified) gave a melting point of 104 to 106 °C. For `Nc1nc2ccccc2c2c1nc(-c1ccccc1)n2CCCCNC(=O)c1ccc2ccccc2n1` the value was 81.1 to 83.9 °C; for `O=C(O)C(=NO)c1cccs1`, 132 °C.

The compound `CCOC(=O)CS(=O)(=O)CCC=C1SC=CS1` registered a melting point of 103 to 104 °C. Compound `O=c1[nH]c(=O)n2c(c1-c1ccccc1)SC=CC2` returned a melting point of 286 to 290 °C.

Compound `Cc1oc(-c2ccccc2)nc1COc1ccc(Cn2cc(CCC(=O)O)c(-c3ccc(F)cc3)n2)cc1` displayed a melting point of 139 to 140 °C. Under `N#Cc1cccc(-c2ccc(O)c(-c3nc4cc(C#N)ccc4[nH]3)c2)c1` stands 348 to 350 °C; under `O=C(O)C1C=Nc2c(ccc3cc(C(=O)N4CCc5ccccc5C4)cnc23)C1=O` (stereo unspecified), 171 to 182 °C.

In turn, `COc1cc2c3c(n(C)c(=O)c2cc1OC)-c1cc2c(cc1C3=CCCCI)OCO2` displayed a melting point of 173 to 174 °C. Compound `CCOC(=O)c1ccc(-c2nc(COc3ccc(CO)cc3OC)c(C)o2)s1` showed a melting point of 108 to 109 °C. Turning to `CCCCCN1C(=O)C2(COc3cc4c(cc32)OCO4)c2cccnc21` (stereo unspecified), the melting point fell in the range of 126 to 127 °C. Under `CCOC(=O)C(=O)NNC(=O)c1cc2sc(C)c(N(C)S(=O)(=O)c3cccs3)c2[nH]1` stands 135 °C; under `CCOC(=O)C1C(=O)N(CC)c2cc3c(cc21)OCC3` (stereo unspecified), 82 to 84 °C. For `CCN(CC)Cc1ccc(-c2ccc3c(Nc4cc(OC)c(Cl)cc4Cl)c(C#N)cnc3c2)cc1` the value was 191 to 195 °C. As for `N#Cc1cnc2c(c1Nc1cccc(Br)c1)C=C1N=CN=C1C2`, the melting point was 286 to 288 °C.

As for `CC1(C)CC(OC(=O)c2ccccc2)CC(C)(C)N1N=Nc1ccccc1`, the melting point lay within 89 to 91 °C.

The compound `CSc1ncc(Cl)cc1C#N` came in with a melting point of 147 to 149 °C. For `O=C(O)c1c(Oc2ccc(F)cc2)cccc1Oc1ccc2c(c1)OCO2` the value was 164 to 166 °C; for `CC(C)Nc1cccnc1N1CCN(C(=O)c2ccc(C(=O)N(CCO)CCO)cn2)CC1`, 130 to 132 °C. Under `CC(=O)N[C@@H](Cc1ccc(Oc2sc(C(N)=O)c3c2-c2c(cnn2C)CC3)cc1)C(=O)N1CCOCC1` stands 139 to 140 °C; under `Cc1cc2c(s1)N(C)c1ccccc1N=C2N1CCN(C)CC1`, 126 to 128 °C; under `CCCCCCCCCCCCCCCCCCOc1cc(N(CC(=O)OC)CC(=O)OC)cc(S(C)=O)c1` (stereo unspecified), 80 to 82 °C. Under `CCOC(=O)c1cccc2c(=O)cc(-c3ccc(OCc4ccc5ccccc5c4)cc3)oc12` stands 245 to 249 °C; under `Cc1c(C)c2c(c(C)c1N)CC(C)(CN1CCN(C(=O)c3ccc([N+](=O)[O-])cc3)CC1)O2` (stereo unspecified), 154 to 158 °C; under `CCC(NCCN)(C(=O)O)c1cccc(Cl)c1` (stereo unspecified), 207 to 208 °C. `O=c1[nH]c2cc(F)ccc2n(C2CCCCC2)c1=O`: the melting point amounted to 290 °C. Under `COC(=O)c1ccc(C(=O)NS(=O)(=O)c2ccc(C(=O)NCCc3ccccc3)cc2)cn1` stands 228 to 230 °C. For the compound `Cc1cc(C)c2c(c1)nc(N(CCN1CCOCC1)C1CCNCC1)n2Cc1nc(C)ccc1O`, the melting point was 226 °C. `COC(=O)c1cccc2c(C(F)(F)F)c(OC)ccc12` came in with a melting point of 79 to 80 °C. `CC(C)(C)OC(=O)NC(Cc1c[nH]c2ccccc12)C(=O)OCCl` (stereo unspecified) gave a melting point of 155 to 157 °C. Under `C#CCN(CC#C)c1ccc(Cl)c(Cl)c1` stands 48 to 50 °C. Under `N#Cc1cncc(-c2cccc(OCc3ccccc3)c2)c1Nc1ccc2[nH]ccc2c1` stands 165 to 166 °C.

For `COC(=O)CS(=O)(=O)Nc1c(F)cc(F)cc1F`, the melting point fell in the range of 99 to 100 °C. For `COc1cc2c(cc1Nc1ncc(Cl)c(Nc3ccc(C(N)=O)cc3OC)n1)CCN(CC(=O)N(C)C)CC2` the value was 113 to 131 °C. In turn, `O=c1oc2ccccc2c(O)c1C(Sc1ccc(Cl)cc1)c1cc(F)ccc1F` (stereo unspecified) came in with a melting point of 146 to 147 °C. Under `O=C(O)Cc1cccc(CCNC(=O)C2Cc3ccccc3N2S(=O)(=O)c2ccc(-c3cccc(C(F)(F)F)c3)cc2)c1` (stereo unspecified) stands 90 °C.

In general, melting point refers to the temperature of the solid-liquid transition.
